Data on 13 molecules can be found in ChEMBL document CHEMBL1145618, “Discovery of trypanocidal thiosemicarbazone inhibitors of rhodesain and TbcatB” (Bioorg Med Chem Lett, 2008).

The pIC50 is the negative decadic logarithm of the IC50, by convention in mol/L. A word on the pEC50: it is the negative decadic logarithm of the EC50, by convention in mol/L. Read a low pEC50 as a high EC50.

pEC50, pIC50: −log10 of the molar value. Some results are limits rather than exact numbers.

Data set [1] can be described thus: Inhibition of Trypanosoma brucei rhodesain.
Data set [2] is described as follows: Inhibition of Trypanosoma brucei cathepsin B.
The subject of data set [3] is Trypanosoma brucei. The data set is described as follows: Antitrypanosomal activity against Trypanosoma brucei. Type of data set: functional, organism-based.
Data set [4] addresses Procathepsin L (Homo sapiens, UniProt P07711). The experiment in a line: Inhibition of human cathepsin L.
The target in data set [5] is Cathepsin B (Homo sapiens, UniProt P07858). The experiment in a line: Inhibition of human cathepsin B.
Data set [6] can be described thus: Therapeutic index, ratio of EC50 for human Raji cells to EC50 for Trypanosoma brucei. It is filed as cell-based. The following applies: Raji cells (versus Trypanosoma brucei), read-out: Ratio EC50.

Sequence of Procathepsin L (P07711 whole entry): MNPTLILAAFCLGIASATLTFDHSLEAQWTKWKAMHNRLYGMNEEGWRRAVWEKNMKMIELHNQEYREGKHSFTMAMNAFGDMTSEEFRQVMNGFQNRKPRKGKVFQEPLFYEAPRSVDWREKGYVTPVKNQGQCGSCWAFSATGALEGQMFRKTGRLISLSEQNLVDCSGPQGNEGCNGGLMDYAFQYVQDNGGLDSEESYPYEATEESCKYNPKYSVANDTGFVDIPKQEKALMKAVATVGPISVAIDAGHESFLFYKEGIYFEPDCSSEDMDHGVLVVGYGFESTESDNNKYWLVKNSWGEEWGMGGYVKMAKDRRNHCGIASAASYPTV

As for `NC(=S)N/N=C(/CCc1ccccc1)c1cccc(Cl)c1`, the negative logarithm of the IC50 (pIC50) was 7.38 in data set [1], < 4.60 in data set [2], 7.68 in data set [4] and 5.22 in data set [5]. Also, the negative logarithm of the EC50 (pEC50) in data set [3] is 5.43. For the same molecule, the selectivity ratio in data set [6] is > 6.7.

On to `NC(=S)N/N=C(/c1cc(Cl)cc(Cl)c1)c1cccs1`, for which the pIC50 in data set [1] is 7.96; in data set [2], 6.35; in data set [4], 8.44; in data set [5], 6.52. Further, the negative-log EC50 (pEC50) in data set [3] was 5.15. Moreover, in data set [6], the selectivity ratio was > 4.

As for `NC(=S)N/N=C(/c1cc(C(F)(F)F)cc(C(F)(F)F)c1)c1cccs1`, the pIC50 in data set [1] was 8.15; in data set [2], 6.82; in data set [4], 8.00; in data set [5], 6.52. For the same molecule, in data set [3], the pEC50 was 5.15. For the same molecule, the selectivity ratio in data set [6] is > 4.

For `NC(=S)N/N=C(/CCc1ccccc1)c1cccc(F)c1`, the pIC50 is 6.41 in data set [1], < 4.60 in data set [2], 6.93 in data set [4] and 4.66 in data set [5]. Also, the negative-log EC50 (pEC50) in data set [3] was 5.22. In addition, in data set [6], the selectivity ratio is > 4.

As to `Cc1ccc(/C(=N/NC(N)=S)c2cccc(F)c2)cc1`, the pIC50 is 7.05 in data set [1], < 4.60 in data set [2], 7.36 in data set [4] and 5.35 in data set [5]. In data set [3], the pEC50 was < 5.00.

Take `Cc1ccc(/C(=N\NC(N)=S)c2cc(Cl)cc(Cl)c2)cc1`: the pIC50 in data set [1] was 7.34; in data set [2] it was 5.22; in data set [4] it was 7.96; in data set [5] it was 5.74. For the same molecule, the pEC50 in data set [3] is 5.96. The selectivity ratio in data set [6] was > 9.

Consider `Cc1ccc(/C(=N/NC(N)=S)c2ccccc2)cc1`, for which the pIC50 is 6.30 in data set [1], < 4.60 in data set [2], 5.99 in data set [4] and 4.89 in data set [5]. For the same molecule, in data set [3], the negative logarithm of the EC50 (pEC50) was < 5.00.

In the case of `NC(=S)N/N=C(/C=C/c1ccccc1)c1cccc(C(F)(F)F)c1`, the pIC50 is 7.54 in data set [1], 5.15 in data set [2], 7.09 in data set [4] and 5.77 in data set [5]. This molecule also had a pEC50 in data set [3] of 5.60. For the same molecule, the selectivity ratio in data set [6] was > 10.

As to `NC(=S)N/N=C(\CCc1ccccc1)c1cc(Cl)cc(Cl)c1`, the pIC50 is 7.24 in data set [1], < 4.60 in data set [2], 7.41 in data set [4] and 5.31 in data set [5]. Besides, the pEC50 in data set [3] was 5.89. In data set [6], the selectivity ratio was > 19.

With `Cc1ccc(/C(=N/NC(N)=S)c2cccc(C(F)(F)F)c2)cc1`, the pIC50 in data set [1] was 8.10; in data set [2] it was 6.68; in data set [4], 8.03; in data set [5] it was 6.68. In data set [3], this molecule had a negative-log EC50 (pEC50) of 5.82. Also, the selectivity ratio in data set [6] is > 17.

On to `NC(=S)N/N=C(\CCc1ccccc1)c1cc(C(F)(F)F)cc(C(F)(F)F)c1`, for which the pIC50 is 7.28 in data set [1], < 4.60 in data set [2], 7.77 in data set [4] and 5.52 in data set [5]. In data set [3], the pEC50 was 5.70. Besides, in data set [6], the selectivity ratio is > 10.

Consider `NC(=S)N/N=C(/CCc1ccccc1)c1ccccc1`, for which the negative logarithm of the IC50 (pIC50) in data set [1] is 5.82; in data set [2], < 4.60; in data set [4] it was 6.04; in data set [5] it was < 4.60. Besides, the pEC50 in data set [3] was < 5.00.

For the molecule `Cc1ccc(/C(=N\NC(N)=S)c2cc(C(F)(F)F)cc(C(F)(F)F)c2)cc1` [THIOSEMICARBAZONE STANDARD], the pIC50 is 7.36 in data set [1], 4.82 in data set [2], 8.13 in data set [4] and 5.48 in data set [5]. In data set [3], this molecule showed a negative-log EC50 (pEC50) of 5.89. For the same molecule, the selectivity ratio in data set [6] was > 19.
